Experimental findings from US10160747B2, “Compounds and methods for kinase modulation, and indications therefor” (Plexxikon Inc., priority 2016, dated 2018) are described below.

SMILES strings stand for the structures.

For one experiment, the target named is T1, c-KIT (Homo sapiens, UniProt P10721).
T1 construct: purchased Millipore 14-559K
The experiment in a line: c-KIT recombinant enzyme kinase assay (AlphaScreen). Format: biochemical. As to conditions: 100 ATP, 8 pt. As for the experimental part:
In order to determine the effect of compounds on FLT3 catalytic activity, kinase assays using recombinant enzymes and AlphaScreen® technology have been established. The catalytic activity of c-kit activity was also measured to determine selectivity of the compounds. When the kinases are catalytically active, they phosphorylate a biotinylated peptide substrate on tyrosine residues. Using AlphaScreen® technology, the ability of the compounds to affect the catalytic activity of the kinases can be measured quantitatively. The peptide substrate is immobilized by the AlphaScreen® Streptavidin Donor beads and, upon phosphorylation by a tyrosine kinase, can bind to AlphaScreen® Anti-Phosphotyrosine (PY20) Acceptor beads. Upon excitation of these beads with laser light at 680 nm, singlet oxygen is produced. This singlet oxygen is rapidly quenched, unless the AlphaScreen® Anti-Phosphotyrosine (PY20) Acceptor beads are in close proximity, in which case a proximity signal can be measured at 580 nm. In the presence of catalytic activity, there is a very strong proximity signal. Selective kinase inhibitors affect a decrease in this proximity signal through a decrease in tyrosine phosphorylation of the peptide substrate.
The assay was performed as summarized below.
Poly (Glu4-Tyr) Peptide, biotin conjugate [Biotin-GG(EEEEY)10EE] (SEQ ID NO: 4)
Final concentration=30 nM
Adenosine Triphosphate (ATP)
Final concentration for IC50 determination=10 μM (FLT3-D835Y or FLT3-ITD) or 100 μM (c-KIT)
AlphaScreen® Phosphotyrosine (PY20) Assay Kit
Final concentration=10 μg/mL
Dilute compounds in DMSO to 20× final concentration.
Add 1 μL of compound to each well of 384 well reaction plate (Perkin Elmer #6005359).
Mix enzyme and Poly (Glu4-Tyr) Peptide substrate at 1.33× final concentration in assay buffer.
Mix ATP at 5× final concentration in assay buffer.
Add 15 μL enzyme/substrate mixture to the reaction plate.
Add 4 μL of ATP to the reaction plate.
Mix Streptavidin Donor beads at 6× final concentration in Stop/Detection buffer.
Add 5 μL Streptavidin Donor beads to the reaction plate. Centrifuge 1 minute, shake to mix, and incubate at room temperature for 20 minutes.
Mix Anti-Phosphotyrosine (PY20) Acceptor beads at 6× final concentration in Stop/Detection buffer.
Add 5 μL Anti-Phosphotyrosine (PY20) beads to the reaction plate.
Centrifuge 1 minute, shake to mix, and incubate at room temperature for 60 minutes.
Read plate on Wallac EnVision™ 2103 Multilabel Reader.

Experiment [1] concerns MOLM-14 F691L (endogenous FLT3 ITD and transfected FLT3 F691L). Description: MOLM-14 F691L cell proliferation assay (CellTiter-Glo). Format: cell-based. As to conditions: Homo sapiens, MOLM-14, 72 h; 3 d growth, GMean. An outline of the steps:
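MOLM-14 derivatives carrying D835Y or F691L, selected under escalating AC220, were seeded at 1×10^4 cells/well and exposed to an 8-point 1:3 compound series (1 to 0.00046 μM, 0.2% DMSO final) for three days at 37° C., 5% CO2. CellTiter-Glo luminescence (ATP content) versus concentration gave IC50.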
A general note: Cellular ATP, detected with luciferase, serves as a proxy for viable cell number.

Usually IC50 stands for the concentration needed to halve the response being measured.

T1 sequence (P10721 26-976): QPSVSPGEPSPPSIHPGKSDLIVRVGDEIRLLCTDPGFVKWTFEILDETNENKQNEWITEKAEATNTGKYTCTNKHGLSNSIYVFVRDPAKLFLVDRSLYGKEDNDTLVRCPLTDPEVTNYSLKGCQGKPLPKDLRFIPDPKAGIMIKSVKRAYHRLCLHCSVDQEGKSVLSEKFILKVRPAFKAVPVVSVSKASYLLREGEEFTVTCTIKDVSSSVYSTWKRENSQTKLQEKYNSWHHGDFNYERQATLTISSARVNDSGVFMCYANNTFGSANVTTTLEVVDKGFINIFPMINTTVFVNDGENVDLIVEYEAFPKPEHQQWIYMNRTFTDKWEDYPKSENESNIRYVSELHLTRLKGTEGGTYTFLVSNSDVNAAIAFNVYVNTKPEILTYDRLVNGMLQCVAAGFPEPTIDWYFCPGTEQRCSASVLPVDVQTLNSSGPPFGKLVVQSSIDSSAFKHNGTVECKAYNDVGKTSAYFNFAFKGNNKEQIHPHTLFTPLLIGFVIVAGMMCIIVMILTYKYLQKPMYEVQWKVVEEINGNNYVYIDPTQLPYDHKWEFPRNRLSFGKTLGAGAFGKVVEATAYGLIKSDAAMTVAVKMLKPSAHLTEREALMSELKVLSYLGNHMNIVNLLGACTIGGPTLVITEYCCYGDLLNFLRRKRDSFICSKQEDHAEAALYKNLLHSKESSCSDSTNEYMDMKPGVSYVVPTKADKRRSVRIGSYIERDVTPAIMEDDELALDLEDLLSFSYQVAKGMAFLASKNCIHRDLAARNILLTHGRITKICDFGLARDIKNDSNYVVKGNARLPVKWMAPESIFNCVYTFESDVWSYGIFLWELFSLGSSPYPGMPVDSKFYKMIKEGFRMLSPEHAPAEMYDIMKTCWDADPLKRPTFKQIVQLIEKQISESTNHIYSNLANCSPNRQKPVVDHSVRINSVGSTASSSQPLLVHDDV

For the compound `Cn1cc(Nc2ncc(-c3ccc(CC(=O)Nc4cnc(F)c(C(C)(F)F)c4)cc3)cn2)cn1` [Compound P-0104, N-[5-(1,1-difluoroethyl)-6-fluoro-3-pyridyl]-2-[4-[2-[(1-methylpyrazol-4-yl)amino]pyrimidin-5-yl]phenyl]acetamide], the IC50 (at c-KIT; in experiment [1]) was 0.0001 to 10 µM throughout.
With `Cn1cc(Nc2ncc(-c3ccc(CC(=O)Nc4cnnc(Cl)c4)cc3)cn2)cn1` [Compound P-0151, N-(6-chloropyridazin-4-yl)-2-[4-[2-[(1-methylpyrazol-4-yl)amino]pyrimidin-5-yl]phenyl]acetamide], the IC50 at c-KIT was 0.0001 to 10 µM.
Take `Cn1cc(Nc2ncc(-c3ccc(CC(=O)Nc4ccc(C(C)(C)C)nc4)cc3)cn2)cn1` [Compound P-0143, N-(6-tert-butyl-3-pyridyl)-2-[4-[2-[(1-methylpyrazol-4-yl)amino]pyrimidin-5-yl]phenyl]acetamide]: the IC50 (on c-KIT; in experiment [1]) was 0.0001 to 10 µM in each case.
`Cn1cnc(Nc2ncc(-c3ccc(CC(=O)Nc4cncc(C(C)(F)F)c4)c(F)c3)cn2)c1` [Compound P-0103, N-[5-(1,1-difluoroethyl)-3-pyridyl]-2-[2-fluoro-4-[2-[(1-methylimidazol-4-yl)amino]pyrimidin-5-yl]phenyl]acetamide]: the half-maximal inhibitory concentration (IC50) (on c-KIT; in experiment [1]) was 0.0001 to 10 µM each time.
On to `Cn1cnc(Nc2ncc(-c3ccc(CC(=O)Nc4cc(C(F)(F)F)ccn4)c(F)c3)cn2)c1` [Compound P-0096, 2-[2-fluoro-4-[2-[(1-methylimidazol-4-yl)amino]pyrimidin-5-yl]phenyl]-N-[4-(trifluoromethyl)-2-pyridyl]acetamide], for which the 50% inhibitory concentration (IC50) (at c-KIT; in experiment [1]) was 0.0001 to 10 µM each time.
`Cn1cc(Nc2ncc(-c3ccc(CC(=O)Nc4ccnc(C5CC5)c4)c(F)c3)cn2)cn1` [Compound P-0098, N-(2-cyclopropyl-4-pyridyl)-2-[2-fluoro-4-[2-[(1-methylpyrazol-4-yl)amino]pyrimidin-5-yl]phenyl]acetamide]: the IC50 (at c-KIT; in experiment [1]) was 0.0001 to 10 µM in each case.
For the compound `Cn1cc(Nc2ncc(-c3ccc(CC(=O)Nc4ccnc(C(F)(F)F)n4)cc3)cn2)cn1` [Compound P-0137, 2-[4-[2-[(1-methylpyrazol-4-yl)amino]pyrimidin-5-yl]phenyl]-N-[2-(trifluoromethyl)pyrimidin-4-yl]acetamide], the IC50 (at c-KIT; in experiment [1]) was 0.0001 to 10 µM in each case.
As for `N#Cc1cc(-c2cc3cc(-c4ccc(CC(=O)Nc5cc(C(F)(F)F)ccn5)cc4F)cnc3[nH]2)ccn1` [Compound P-0194, 2-[4-[2-(2-cyano-4-pyridyl)-1H-pyrrolo[2,3-b]pyridin-5-yl]-3-fluoro-phenyl]-N-[4-(trifluoromethyl)-2-pyridyl]acetamide], on c-KIT, the IC50 lay in the range of 0.0001 to 10 µM.
On to `Cn1cc(Nc2ncc(-c3ccc(CC(=O)Nc4ccc(S(C)(=O)=O)cc4)cc3)cn2)cn1` [Compound P-0156, 2-[4-[2-[(1-methylpyrazol-4-yl)amino]pyrimidin-5-yl]phenyl]-N-(4-methylsulfonylphenyl)acetamide], for which the IC50 (at c-KIT; in experiment [1]) was 0.0001 to 10 µM each time.
In the case of `Cc1n[nH]c2ncc(-c3ccc(CC(=O)Nc4cncc(C(F)(F)F)c4)cc3F)cc12` [Compound P-0177, 2-[3-fluoro-4-(3-methyl-1H-pyrazolo[3,4-b]pyridin-5-yl)phenyl]-N-[5-(trifluoromethyl)-3-pyridyl]acetamide], on c-KIT, the IC50 lay within 0.0001 to 10 µM.
Take `Cn1cc(Nc2ncc(-c3ccc(CC(=O)Nc4ccc(C(F)(F)F)cn4)cc3)cn2)cn1` [Compound P-0109, 2-[4-[2-[(1-methylpyrazol-4-yl)amino]pyrimidin-5-yl]phenyl]-N-[5-(trifluoromethyl)-2-pyridyl]acetamide]: the IC50 (on c-KIT; in experiment [1]) was 0.0001 to 10 µM in each case.
Turning to `N#Cc1ccc(-c2cc3cc(-c4ccc(CC(=O)Nc5cncc(C(F)(F)F)c5)cc4F)cnc3[nH]2)cn1` [Compound P-0195, 2-[4-[2-(6-cyano-3-pyridyl)-1H-pyrrolo[2,3-b]pyridin-5-yl]-3-fluoro-phenyl]-N-[5-(trifluoromethyl)-3-pyridyl]acetamide], the concentration for half-maximal inhibition (IC50) at c-KIT was in the range of 0.0001 to 10 µM.
Regarding `Cc1ncc(NC(=O)Cc2cc(F)c(-c3cnc4[nH]nc(C)c4c3)cc2F)cc1C(F)(F)F` [Compound P-0175, 2-(2,5-difluoro-4-(3-methyl-1H-pyrazolo[3,4-b]pyridin-5-yl)phenyl)-N-(6-methyl-5-(trifluoromethyl)pyridin-3-yl)acetamide], the IC50 on c-KIT lay within 0.0001 to 10 µM.
On the same count and under the same terms, as for `COc1ncc(NC(=O)Cc2cc(F)c(-c3cnc4[nH]nc(C)c4c3)cc2F)cc1C(F)(F)F` [Compound P-0176, 2-[2,5-difluoro-4-(3-methyl-1H-pyrazolo[3,4-b]pyridin-5-yl)phenyl]-N-[6-methoxy-5-(trifluoromethyl)-3-pyridyl]acetamide], the figure is 0.0001 to 10 µM.
The same measure, in the same setting: as for `COc1ncc(NC(=O)Cc2ccc(-c3cnc4[nH]nc(C)c4c3)c(F)c2)cc1C(F)(F)F` [Compound P-0174, 2-[3-fluoro-4-(3-methyl-1H-pyrazolo[3,4-b]pyridin-5-yl)phenyl]-N-[6-methoxy-5-(trifluoromethyl)-3-pyridyl]acetamide], the figure is 0.0001 to 10 µM.
As for `Cn1cnc(Nc2ncc(-c3ccc(CC(=O)Nc4cnc(F)c(C(C)(F)F)c4)cc3F)cn2)c1` [Compound P-0170, N-[5-(1,1-difluoroethyl)-6-fluoro-3-pyridyl]-2-[3-fluoro-4-[2-[(1-methylimidazol-4-yl)amino]pyrimidin-5-yl]phenyl]acetamide], at c-KIT, the half-maximal inhibitory concentration (IC50) lay within 0.0001 to 10 µM.
The same measure, in the same setting: the result for `Cc1n[nH]c2ncc(-c3cc(F)c(CC(=O)Nc4cncc(C(F)(F)F)c4)cc3F)cc12` [Compound P-0173, 2-[2,5-difluoro-4-(3-methyl-1H-pyrazolo[3,4-b]pyridin-5-yl)phenyl]-N-[5-(trifluoromethyl)-3-pyridyl]acetamide] reads 0.0001 to 10 µM.
Consider `O=C(Cc1ccc(-c2cnc3[nH]c(-c4cnn(C(F)F)c4)cc3c2)c(F)c1)Nc1cncc(C(F)(F)F)c1` [Compound P-0197, 2-[4-[2-[1-(difluoromethyl)pyrazol-4-yl]-1H-pyrrolo[2,3-b]pyridin-5-yl]-3-fluoro-phenyl]-N-[5-(trifluoromethyl)-3-pyridyl]acetamide], for which the IC50 in experiment [1] was in the range of 0.0001 to 10 µM.
In the case of `COc1cc(NC(=O)Cc2ccc(-c3cnc(Nc4cnn(C)c4)nc3)cc2)ccn1` [Compound P-0153, N-(2-methoxy-4-pyridyl)-2-[4-[2-[(1-methylpyrazol-4-yl)amino]pyrimidin-5-yl]phenyl]acetamide], at c-KIT, the IC50 was 0.0001 to 10 µM.
Compound `Cn1cc(Nc2ncc(-c3ccc(CC(=O)Nc4cc(Cl)c(C5CC5)cn4)cc3)cn2)cn1` [Compound P-0164, N-(4-chloro-5-cyclopropyl-2-pyridyl)-2-[4-[2-[(1-methylpyrazol-4-yl)amino]pyrimidin-5-yl]phenyl]acetamide] returned an IC50 in experiment [1] of 0.0001 to 10 µM.
On the same count and under the same terms, the result for `O=C(Cc1ccc(-c2cnc3[nH]c(-c4ccccc4)cc3c2)cc1F)Nc1ccnc(C(F)(F)F)c1` [Compound P-0004, 2-[2-fluoro-4-(2-phenyl-1H-pyrrolo[2,3-b]pyridin-5-yl)phenyl]-N-[2-(trifluoromethyl)-4-pyridyl]acetamide] reads 0.0001 to 10 µM; that for `Cc1cc(-c2cnc3[nH]c(-c4ccccc4)cc3c2)ccc1CC(=O)Nc1cccc(C(F)(F)F)c1` [Compound P-0001, 2-[2-methyl-4-(2-phenyl-1H-pyrrolo[2,3-b]pyridin-5-yl)phenyl]-N-[3-(trifluoromethyl)phenyl]acetamide], 0.0001 to 10 µM; that for `O=C(Cc1ccc(-c2cnc3[nH]c(-c4ccc(N5CCOCC5)nc4)cc3c2)c(F)c1)Nc1cc(C(F)(F)F)ccn1` [Compound P-0192, 2-[3-fluoro-4-[2-(6-morpholino-3-pyridyl)-1H-pyrrolo[2,3-b]pyridin-5-yl]phenyl]-N-[4-(trifluoromethyl)-2-pyridyl]acetamide], 0.0001 to 10 µM.
Still for that read-out and setting: the result for `O=C(Cc1ccc(-c2cnc3[nH]c(-c4ccccc4)cc3c2)c(F)c1)Nc1cccc(C(F)(F)F)c1` [Compound P-0003, 2-[3-fluoro-4-(2-phenyl-1H-pyrrolo[2,3-b]pyridin-5-yl)phenyl]-N-[3-(trifluoromethyl)phenyl]acetamide] reads 0.0001 to 10 µM.
